Test results: patent US7169932B2 (priority 2001, dated 2007)
Like-named read-outs stand apart in the source and are kept apart here.

Legend:
HIV-1 protease (Q7S) = target: T1, HIV-1 protease (Q7S) (Human immunodeficiency virus type 1 group M subtype B, UniProt P04585, Q495S); assay: HIV-1 Protease RET Assay; type: biochemical
T1 construct: made in house
Method: Ki's for the inhibitors of HIV-1 protease were determined using a resonance energy transfer (RET) assay. […] This enzyme is first partially purified as inclusion bodies from cell lysate. It is then solublized in 8M urea and passed through a Q-Sepharose column (Pharmacia) for further purification. To refold this protein, samples containing Q7S is dialyzed into 50 mM sodium phosphate pH 7.0, 50 mM NaCl, 10 mM DTT, and 10% glycerol.
The commercially available peptide substrate (Molecular Probes Cat. # H-2930) RE(EDANS)SQNYPIVQK(DABCYL)R is used to assess activity and Ki's. This peptide is cleaved quantitatively by HIV-1 Pr at the Tyr-Pro bond. The EDANS fluorophore absorbs at 340 nm and emits at 490 nm. The reaction is carried out in a 96 well plate in a total volume of 100 μL and is run for 12 minutes at 37 C under steady-state conditions with 5 μM substrate and 2 nM active dimer enzyme concentration. The literature value Km for this substrate and enzyme is 103+/−8 μM (See Matayoshi, et al., “Novel Fluorogenic Substrates for Assaying Retroviral Proteases by Resonance Energy Transfer,” Science 247, 954 (1990)). The buffer for this reaction is 0.1M sodium acetate pH 4.8, 1M NaCl, 1 mM EDTA, 5 mM dithiothreitol, 10% dimethyl sulfoxide and 1 mg/ml bovine serum albumin. Inhibition curves are fit using the Morrison tight binding equation.

HIV-1 = assay: Cytopathic Effect (CPE) Inhibition Assay (XTT dye reduction); type: cell-based
Method: T-cell lines, CEM-SS, and MT-2, and viruses HIV-1 RF and HIV-1 NL4–3 (pNL4–3) were obtained from the National Institutes of Health (AIDS Research and Reference Reagent Program, Bethesda, Md.).
The ability of compounds to protect cells against HIV infection was measured by the […] dye reduction method, essentially as described (See Pauwels, R. Balzarini, J. Baba, M. Snoeck, R. Schols, D. Herdewijn, P. Desmyter, J. and De Clercq, E. 1988, “Rapid and automated tetrazolium-based colorimetric assay for the detection of anti-HIV compounds,”. J Virol Methods., 20: 309–321 and Weislow, O. S. Kiser, R. Fine, D. L. Bader, J. Shoemaker, R. H. and Boyd, M. R. 1989. “New soluble-formazan assay for HIV-1 cytopathic effects: application to high-flux screening of synthetic and natural products for AIDS-antiviral activity”. J. Natl. Cancer Inst. 81:577–586). Subject cells were infected with test virus at an moi of 0.025 to 0.819 or mock infected with medium only and added at 2×10^4 cells per well into 96 well plates containing half-log dilutions of test compounds. Six days later, 50 μl of XTT (1 mg/ml XTT tetrazolium, […] phenazine methosulfate) was added to the wells and the plate was reincubated for four hours. Viability, as determined by the amount of XTT formazan produced, was quantified spectrophotometrically by absorbance at 450 nm. Data from CPE assays were expressed as the percent of formazan produced in compound-treated cells compared to formazan produced in wells of uninfected, compound-free cells. The fifty percent effective concentration (EC50) was calculated as the concentration of compound that effected an increase in the percentage of formazan production in infected, compound-treated cells to 50% of that produced by uninfected, compound-free cells. The 50% cytotoxicity concentration (CC50) was calculated as the concentration of compound that decreased the percentage of formazan produced in uninfected, compound-treated cells to 50% of that produced in uninfected, compound-free cells. The therapeutic index was calculated by dividing the cytotoxicity (CC50) by the antiviral activity (EC50).

[1] = Ave. Ki (nM), RET assay, Q7S enzyme, pH 4.8, 37 C
[2] = Human immunodeficiency virus 1, 144 h, read-out: Ave CPE EC50 (mM)
[3] = Ki, table of drawn compounds, unit inferred

SMILES: Cc1ccccc1CNC(=O)[C@H]1N(C(=O)[C@@H](O)[C@H](Cc2ccccc2)NC(=O)c2cccc(N)n2)CSC1(C)C [Example B40, 6-Amino-pyridine-2-carboxylic acid {(1S,2S)-1-benzyl-3-[(R)-5,5-dimethyl-4-(2-methyl-benzylcarbamoyl)-thiazolidin-3-yl]-2-hydroxy-3-oxo-propyl}-amide]
- Ki (HIV-1 protease (Q7S); [1]): 2.8 nM
- EC50 (HIV-1; [2]): 1400 nM

SMILES: Cc1ccccc1CNC(=O)[C@H]1N(C(=O)[C@@H](O)[C@H](Cc2ccccc2)NC(=O)c2c(C)noc2C)CSC1(C)C [Example B10, 3,5-Dimethyl-isoxazole-4-carboxylic acid {(1S,2S)-1-benzyl-3-[(R)-5,5-dimethyl-4-(2-methyl-benzylcarbamoyl)-thiazolidin-3-yl]-2-hydroxy-3-oxo-propyl}-amide]
- Ki (HIV-1 protease (Q7S); [1]): < 0.1 nM
- EC50 (HIV-1; [2]): 1100 nM

SMILES: Cc1ccccc1CNC(=O)C1N(C(=O)[C@@H](O)[C@H](Cc2ccccc2)NC(=O)c2cccnc2C)CSC1(C)C (stereo partly drawn) [Example B44, N-{(1S,2S)-1-Benzyl-3-[5,5-dimethyl-4-(2-methyl-benzylcarbamoyl)-thiazolidin-3-yl]-2-hydroxy-3-oxo-propyl}-2-methyl-nicotinamide]
- Ki (HIV-1 protease (Q7S); [1]): 0.76 nM
- EC50 (HIV-1; [2]): 629 nM

SMILES: Cc1c(O)cccc1C(=O)N[C@@H](Cc1ccccc1)[C@H](O)C(=O)N1CSC(C)(C)[C@H]1C(=O)NCc1cc(F)cc(F)c1
- Ki (HIV-1 protease (Q7S); [3]): 0.36 nM
- EC50 (HIV-1; Human immunodeficiency virus 1): 144 nM

SMILES: Cc1ccccc1CNC(=O)[C@@H]1[C@H](C)OCN1C(=O)[C@@H](O)[C@H](Cc1ccccc1)NC(=O)c1cccc(O)c1C [Example C8, (4S,5S)-3-((2S,3S)-2-Hydroxy-3-{[1-(3-hydroxy-2-methyl-phenyl)-methanoyl]-amino}-4-phenyl-butanoyl)-5-methyl-oxazolidine-4-carboxylic acid 2-methyl-benzylamide]
- Ki (HIV-1 protease (Q7S); [1]): 0.26 nM
- EC50 (HIV-1; [2]): 447 nM

SMILES: COc1cccc(CNC(=O)[C@H]2N(C(=O)[C@@H](O)[C@H](Cc3ccccc3)NC(=O)c3ccc(C)c(O)c3C)CSC2(C)C)c1
- Ki (HIV-1 protease (Q7S); [3]): 3.7 nM
- EC50 (HIV-1; Human immunodeficiency virus 1): 1330 nM

SMILES: Cc1noc(C)c1C(=O)NC(Cc1ccccc1)C(O)C(=O)N1CSC(C)(C)C1C(=O)NCc1c(F)cccc1F (centres unmarked) [Example B25, 3,5-Dimethyl-isoxazole-4-carboxylic acid {1-benzyl-3-[4-(2,6-difluoro-benzylcarbamyl)-5,5-dimethyl-thiazolidin-3-yl]-2-hydroxy-3-oxo-propyl}-amide]
- Ki (HIV-1 protease (Q7S); [1]): 2.7 nM
- EC50 (HIV-1; [2]): 1790 nM

SMILES: Cc1c(O)cccc1C(=O)N[C@@H](Cc1ccccc1)[C@H](O)C(=O)N1CSC(C)(C)[C@H]1C(=O)NCC(C)(C)C
- Ki (HIV-1 protease (Q7S); [3]): ≤ 0.1 nM
- EC50 (HIV-1; Human immunodeficiency virus 1): 53 nM

SMILES: Cn1cccc1C(=O)N[C@@H](Cc1ccccc1)[C@H](O)C(=O)N1CSC(C)(C)[C@H]1C(=O)NCc1ccccc1Cl [Example B22, 3-{2-Hydroxy-3-[(1-methyl-1H-pyrrole-2-carbonyl)-amino]-4-phenyl-butyryl}-5,5-dimethyl-thiazolidine-4-carboxylic acid 2-chloro-benzylamide]
- Ki (HIV-1 protease (Q7S); [1]): 1.8 nM
- EC50 (HIV-1; [2]): 1610 nM

SMILES: Cc1ccccc1CNC(=O)[C@H]1N(C(=O)[C@@H](O)[C@H](Cc2ccccc2)NC(=O)N2CCSC2)CSC1(C)C
- Ki (HIV-1 protease (Q7S); [3]): 14 nM
- EC50 (HIV-1; Human immunodeficiency virus 1): 1510 nM

SMILES: Cc1c(O)cccc1C(=O)N[C@@H](Cc1ccccc1)[C@H](O)C(=O)N1CSC(C)(C)[C@H]1C(=O)NCc1ccc(F)c(F)c1F
- Ki (HIV-1 protease (Q7S); [3]): 0.11 nM
- EC50 (HIV-1; Human immunodeficiency virus 1): 334 nM

SMILES: Cc1ccccc1CNC(=O)[C@H]1N(C(=O)[C@@H](O)[C@H](Cc2ccccc2)NC(=O)c2cnc(C(F)(F)F)[nH]c2=O)CSC1(C)C
- Ki (HIV-1 protease (Q7S); [3]): 1700 nM
- EC50 (HIV-1; Human immunodeficiency virus 1): ≥ 10000 nM

SMILES: Cc1ccccc1CNC(=O)[C@H]1N(C(=O)[C@@H](O)[C@H](Cc2ccccc2)NC(=O)c2csc(N)n2)CSC1(C)C
- Ki (HIV-1 protease (Q7S); [3]): 2.3 nM
- EC50 (HIV-1; Human immunodeficiency virus 1): 1380 nM

SMILES: Cc1ccccc1CN(CCO)C(=O)[C@H]1N(C(=O)[C@@H](O)[C@H](Cc2ccccc2)NC(=O)c2cccc(O)c2C)CSC1(C)C [Example A50, (R)-3-((2S,3S)-2-Hydroxy-3-{[1-(3-hydroxy-2-methyl-phenyl)-methanoyl]-amino}-4-phenyl-butanoyl)-5,5-dimethyl-thiazolidine-4-carboxylic acid (2-hydroxy-ethyl)-(2-methyl-benzyl)-amide]
- Ki (HIV-1 protease (Q7S); [1]): 0.26 nM
- EC50 (HIV-1; [2]): 224 nM

SMILES: CCC/C=C/CNC(=O)[C@H]1N(C(=O)[C@@H](O)[C@H](Cc2ccccc2)NC(=O)c2cccc(O)c2C)CSC1(C)C
- Ki (HIV-1 protease (Q7S); [3]): 2.6 nM
- EC50 (HIV-1; Human immunodeficiency virus 1): 1420 nM

SMILES: Cc1ccccc1CNC(=O)[C@H]1N(C(=O)[C@@H](O)[C@H](Cc2ccccc2)NC(=O)c2cccc(F)c2C)COC1(C)C [Example C11, (S)-3-((2S,3S)-3-{[1-(3-Fluoro-2-methyl-phenyl)-methanoyl]-amino}-2-hydroxy-4-phenyl-butanoyl)-5,5-dimethyl-oxazolidine-4-carboxylic acid 2-methyl-benzylamide]
- Ki (HIV-1 protease (Q7S); [1]): 1.1 nM
- EC50 (HIV-1; [2]): 1560 nM

SMILES: Cc1ccccc1CNC(=O)[C@H]1N(C(=O)[C@@H](O)[C@H](Cc2ccccc2)NC(=O)c2cc(C(C)(C)C)on2)CSC1(C)C
- Ki (HIV-1 protease (Q7S); [3]): 214 nM
- EC50 (HIV-1; Human immunodeficiency virus 1): ≥ 10000 nM

SMILES: Cc1c(O)cccc1C(=O)N[C@@H](Cc1ccccc1)[C@H](O)C(=O)N1CSC(C)(C)[C@H]1C(=O)NCc1ccc(F)cc1C(F)(F)F [Example A12]
- Ki (HIV-1 protease (Q7S); [1]): 1.7 nM
- EC50 (HIV-1; [2]): 1090 nM

SMILES: Cc1ccccc1CNC(=O)[C@H]1N(C(=O)[C@@H](O)[C@H](Cc2ccccc2)NC(=O)c2c(C)nn(C)c2Cl)CSC1(C)C [Example B14, 3-{(S)-3-[(5-Chloro-1,3-dimethyl-1H-pyrazole-4-carbonyl)-amino]-2-hydroxy-4-phenyl-butyryl}-5,5-dimethyl-thiazolidine-4-carboxylic acid 2-methyl-benzylamide]
- Ki (HIV-1 protease (Q7S); [1]): 3.7 nM
- EC50 (HIV-1; [2]): 3050 nM

SMILES: Cc1c(Cl)cccc1CNC(=O)[C@H]1N(C(=O)[C@@H](O)[C@H](Cc2ccccc2)NC(=O)c2cccc(O)c2C)CSC1(C)C
- Ki (HIV-1 protease (Q7S); [3]): 0.2 nM
- EC50 (HIV-1; Human immunodeficiency virus 1): 113 nM

SMILES: Cc1ccc(C(=O)N[C@@H](Cc2ccccc2)[C@H](O)C(=O)N2CSC(C)(C)[C@H]2C(=O)CCC(F)(F)F)c(C)c1O
- Ki (HIV-1 protease (Q7S); [3]): 9.6 nM
- EC50 (HIV-1; Human immunodeficiency virus 1): 723 nM

SMILES: Cc1c(O)cccc1C(=O)N[C@@H](Cc1ccccc1)[C@H](O)C(=O)N1CSC(C)(C)[C@H]1C(=O)NCc1ccc(OC(F)(F)F)cc1 [Example A47, (R)-3-((2S,3S)-2-Hydroxy-3-{[1-(3-hydroxy-2-methyl-phenyl)-methanoyl]-amino}-4-phenyl-butanoyl)-5,5-dimethyl-thiazolidine-4-carboxylic acid 4-trifluoromethoxy-benzylamide]
- Ki (HIV-1 protease (Q7S); [1]): 2.3 nM
- EC50 (HIV-1; [2]): 1810 nM

SMILES: Cc1c(O)cccc1C(=O)N[C@@H](Cc1ccccc1)[C@H](O)C(=O)N1CSC(C)(C)[C@H]1C(=O)NCc1cc(F)ccc1C(F)(F)F [Example A5, 3-(2-Hydroxy-3-{[1-(3-hydroxy-2-methyl-phenyl)-methyanoyl]amino}-4-phenyl-butanoyl)-5,5-dimethyl-thiazolidine-4-carboxlic acid fluoro trifluoromethyl-benzylamide]
- Ki (HIV-1 protease (Q7S); [1]): 2 nM
- EC50 (HIV-1; [2]): 433 nM

SMILES: Cc1noc(C)c1C(=O)N[C@@H](Cc1ccccc1)[C@H](O)C(=O)N1CSC(C)(C)[C@H]1C(=O)NCc1ccccc1Cl [Example B23, 3,5-Dimethyl-isoxazole-4-carboxylic acid {1-benzyl-3-[4-(2-chloro-benzylcarbamoyl)-5,5-dimethyl-thiazolidin-3-yl]-2-hydroxy-3-oxo-propyl}-amide]
- Ki (HIV-1 protease (Q7S); [1]): 0.42 nM
- EC50 (HIV-1; [2]): 1420 nM

SMILES: Cc1c(O)cccc1C(=O)N[C@@H](Cc1ccccc1)[C@H](O)C(=O)N1CSC(C)(C)[C@H]1C(=O)c1ccccc1
- Ki (HIV-1 protease (Q7S); [3]): 2.5 nM
- EC50 (HIV-1; Human immunodeficiency virus 1): 1220 nM
